Test results as given in paper PMC4188605, “Biochemical and Pharmacological Characterization of the Human Lymphocyte Antigen B-Associated Transcript 5 (BAT5/ABHD16A)” (PLoS ONE, 2014).
“And” between values parts separate entries of the source, which are not always exact repeats. Equal entries are not always repeated. Where two headings read alike, the source gives them in different places.

How the values were obtained:
[1] = molecular target: T1, hBAT5 (Homo sapiens, UniProt O95870); assay: hBAT5 substrate hydrolysis and Michaelis-Menten kinetics (glycerol assay, hBAT5-HEK293 lysates); conditions: with 0.5% BSA
T1 sequence (O95870 1-558): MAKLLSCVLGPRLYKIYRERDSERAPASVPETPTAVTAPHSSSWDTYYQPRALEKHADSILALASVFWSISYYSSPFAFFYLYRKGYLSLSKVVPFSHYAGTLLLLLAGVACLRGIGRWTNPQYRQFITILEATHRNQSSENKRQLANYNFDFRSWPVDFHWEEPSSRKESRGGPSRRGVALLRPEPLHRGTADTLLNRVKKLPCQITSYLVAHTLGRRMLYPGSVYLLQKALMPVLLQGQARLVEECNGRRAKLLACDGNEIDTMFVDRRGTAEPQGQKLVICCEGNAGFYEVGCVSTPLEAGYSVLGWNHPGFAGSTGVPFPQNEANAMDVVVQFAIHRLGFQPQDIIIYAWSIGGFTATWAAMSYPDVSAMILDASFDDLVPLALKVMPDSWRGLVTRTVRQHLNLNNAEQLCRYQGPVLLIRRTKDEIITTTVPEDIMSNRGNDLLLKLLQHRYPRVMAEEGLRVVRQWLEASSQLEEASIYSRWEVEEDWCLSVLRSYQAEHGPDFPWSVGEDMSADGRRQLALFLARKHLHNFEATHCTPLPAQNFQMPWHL
Procedure: (§1) HEK293 cells were transiently transfected with the cDNA encoding hBAT5, as detailed in the Methods section. After 48 h, cells were harvested and lysates prepared for hydrolase activity measurements using a sensitive fluorescent glycerol assay. […] Glycerol production was determined at time-point 60 min.
(§2) After 48 h, cells were harvested and lysates prepared for hydrolase activity measurements. Cellular lysates (0.3 µg/well) were incubated together with the indicated concentrations of 1-LG in assay mixes containing (+ BSA) or not (– BSA) 0.5% (w/v) BSA (A) or with 15d-PGJ2-G in assay mix containing BSA (B). […] As crude cellular lysates were used, total protein concentration was used instead of true enzyme concentration. […] Values are mean ± SEM from three independent experiments.
(§3) Glycerol liberated from the hydrolysis of glycerolipid substrates was determined kinetically using a fluorometric assay, essentially as previously described [10]. Briefly, glycerol production was coupled via a three-step enzymatic cascade to hydrogen peroxide (H2O2) dependent generation of resorufin whose fluorescence (λex 530; λem 590 nm) was kinetically monitored using a Tecan Infinite M200 plate reader (Tecan Group Ltd., Männedorf, Switzerland). The assays routinely contained 0.5% (w/v) BSA (essentially fatty acid free) as a carrier for lipophilic compounds. […] The twelve MAG substrates were tested also in assays without BSA. In addition, four commercially available PG-Gs were included. To monitor assay performance, assay blanks without enzyme, cellular background (HEK293/Mock cell lysates) as well as a glycerol standard were included for each tested substrate. Fluorescence of the assay blank was subtracted before calculation of the final results.

[2] = molecular target: T2, hMAGL (Homo sapiens, UniProt Q99685); conditions: 15d-PGJ2-G as substrate for hMAGL; cited from earlier work
T2 construct: expressed in transfected cells; host or cells: HEK
T2 sequence (Q99685 1-303): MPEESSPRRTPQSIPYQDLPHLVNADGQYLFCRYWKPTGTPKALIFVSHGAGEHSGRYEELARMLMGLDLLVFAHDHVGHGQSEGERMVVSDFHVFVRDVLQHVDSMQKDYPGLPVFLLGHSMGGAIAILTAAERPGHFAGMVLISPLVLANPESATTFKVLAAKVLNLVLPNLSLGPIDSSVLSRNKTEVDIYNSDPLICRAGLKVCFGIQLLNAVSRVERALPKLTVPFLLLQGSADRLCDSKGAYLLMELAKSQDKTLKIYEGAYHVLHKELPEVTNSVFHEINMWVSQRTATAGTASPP

[3] = molecular target: T3, hABHD6 (Homo sapiens, UniProt Q9BV23); assay: Hydrolase activity assay, hABHD6-HEK lysates; format: biochemical; conditions: IC50, hABHD6-HEK lysates
T3 construct: expressed in transfected cells; host or cells: HEK293
T3 sequence (Q9BV23 1-337): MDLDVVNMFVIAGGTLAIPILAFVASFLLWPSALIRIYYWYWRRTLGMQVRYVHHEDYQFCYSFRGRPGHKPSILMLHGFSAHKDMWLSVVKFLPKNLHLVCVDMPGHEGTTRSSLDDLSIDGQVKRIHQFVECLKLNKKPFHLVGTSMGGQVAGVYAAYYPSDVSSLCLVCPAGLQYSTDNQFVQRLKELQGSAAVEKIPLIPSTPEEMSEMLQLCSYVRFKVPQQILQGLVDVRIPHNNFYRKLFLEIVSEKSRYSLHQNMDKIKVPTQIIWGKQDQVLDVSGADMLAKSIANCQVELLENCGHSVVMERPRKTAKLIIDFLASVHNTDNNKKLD

[4] = molecular target: T2, hMAGL; assay: Hydrolase activity assay, hMAGL-HEK lysates; format: biochemical
[5] = molecular target: T4, hFAAH (Homo sapiens, UniProt O00519); assay: FAAH activity assay, hFAAH-COS7 membranes (3H-anandamide); format: biochemical
T4 construct: expressed in transfected cells; host or cells: COS-7
T4 sequence (O00519 1-579): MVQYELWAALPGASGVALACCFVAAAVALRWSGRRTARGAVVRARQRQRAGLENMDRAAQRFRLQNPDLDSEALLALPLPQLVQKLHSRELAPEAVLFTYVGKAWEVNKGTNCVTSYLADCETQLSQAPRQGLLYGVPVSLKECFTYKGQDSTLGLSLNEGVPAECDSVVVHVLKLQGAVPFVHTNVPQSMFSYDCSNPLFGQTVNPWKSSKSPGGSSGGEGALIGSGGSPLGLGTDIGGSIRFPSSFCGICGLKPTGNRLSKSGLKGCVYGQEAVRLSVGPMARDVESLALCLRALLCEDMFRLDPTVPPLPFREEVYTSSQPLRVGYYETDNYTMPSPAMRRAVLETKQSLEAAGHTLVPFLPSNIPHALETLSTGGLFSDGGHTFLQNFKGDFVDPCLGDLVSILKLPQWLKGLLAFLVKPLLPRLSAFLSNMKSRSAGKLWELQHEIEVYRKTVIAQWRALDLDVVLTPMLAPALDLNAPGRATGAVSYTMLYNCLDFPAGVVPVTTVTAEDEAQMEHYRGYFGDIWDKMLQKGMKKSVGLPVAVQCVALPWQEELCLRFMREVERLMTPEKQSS

[6] = molecular target: T5, hABHD12 (Homo sapiens, UniProt Q8N2K0); assay: Hydrolase activity assay, hABHD12-HEK lysates; format: biochemical
T5 construct: expressed in transfected cells; host or cells: HEK293
T5 sequence (Q8N2K0 1-398): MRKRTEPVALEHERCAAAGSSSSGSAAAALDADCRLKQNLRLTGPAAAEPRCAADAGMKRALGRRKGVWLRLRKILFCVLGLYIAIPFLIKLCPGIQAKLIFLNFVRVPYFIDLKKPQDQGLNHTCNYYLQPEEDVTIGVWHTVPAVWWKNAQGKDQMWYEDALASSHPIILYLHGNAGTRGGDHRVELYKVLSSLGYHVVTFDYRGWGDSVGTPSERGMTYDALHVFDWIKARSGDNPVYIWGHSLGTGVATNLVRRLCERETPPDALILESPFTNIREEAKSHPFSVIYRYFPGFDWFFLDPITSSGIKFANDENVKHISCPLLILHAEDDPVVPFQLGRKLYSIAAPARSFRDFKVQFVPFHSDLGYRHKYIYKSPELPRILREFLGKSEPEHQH

[7] = molecular target: T5, hABHD12; design: method as in PMID 22969151; conditions: hABHD12-HEK lysates; cited from earlier work
[8] = molecular target: T6, ABHD6 (Mus musculus, UniProt Q8R2Y0); assay: Competitive ABPP, mouse brain membrane proteome: ABHD6 band
T6 sequence (Q8R2Y0 1-336): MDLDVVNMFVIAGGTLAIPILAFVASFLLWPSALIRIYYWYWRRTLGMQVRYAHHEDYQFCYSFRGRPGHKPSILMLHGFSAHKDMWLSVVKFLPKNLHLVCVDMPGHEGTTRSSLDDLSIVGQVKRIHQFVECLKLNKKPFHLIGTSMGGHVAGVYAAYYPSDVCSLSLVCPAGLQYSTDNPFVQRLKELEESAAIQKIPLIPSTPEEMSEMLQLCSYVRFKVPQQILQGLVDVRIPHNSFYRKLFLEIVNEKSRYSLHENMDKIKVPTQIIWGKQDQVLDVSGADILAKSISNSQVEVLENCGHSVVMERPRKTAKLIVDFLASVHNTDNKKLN

[9] = molecular target: T1, hBAT5; assay: Inhibition of 1-LG hydrolysis in hBAT5-HEK293 lysates (fluorescent glycerol assay); format: biochemical; design: host or cells: HEK293; conditions: 1-LG 25 µM; 30 min inhibitor pretreatment; monitored 90 min; mean, n=3; read-out: IC50
[10] = molecular target: T7, BAT5 (Mus musculus, UniProt Q9Z1Q2); assay: Competitive ABPP, mouse brain membrane proteome: BAT5 band; conditions: reference inhibitor at the indicated concentration, used to identify the band (refs 4, 18)
T7 sequence (Q9Z1Q2 1-558): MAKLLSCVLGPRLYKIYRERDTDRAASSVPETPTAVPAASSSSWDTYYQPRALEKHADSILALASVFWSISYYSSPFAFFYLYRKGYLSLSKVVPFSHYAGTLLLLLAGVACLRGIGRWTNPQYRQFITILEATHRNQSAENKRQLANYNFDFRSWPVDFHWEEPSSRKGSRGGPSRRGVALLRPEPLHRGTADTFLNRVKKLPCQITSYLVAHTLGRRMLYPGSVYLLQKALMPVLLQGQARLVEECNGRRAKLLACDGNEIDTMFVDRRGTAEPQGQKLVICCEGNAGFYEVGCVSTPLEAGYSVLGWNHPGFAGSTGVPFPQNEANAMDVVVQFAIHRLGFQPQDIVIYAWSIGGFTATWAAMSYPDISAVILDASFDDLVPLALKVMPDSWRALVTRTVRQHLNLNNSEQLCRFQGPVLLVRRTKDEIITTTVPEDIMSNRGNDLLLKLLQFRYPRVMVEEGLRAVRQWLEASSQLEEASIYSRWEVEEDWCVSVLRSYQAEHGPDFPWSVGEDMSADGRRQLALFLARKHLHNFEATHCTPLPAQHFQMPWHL

[11] = substrate: CCCCC/C=C\C/C=C\CCCCCCCCOCC(O)CO; assay: cells, lysate or membranes named; conditions: other: substrate of hBAT5, time-point 90 min, n=3
Procedure: as §1, §2, §3

In the case of `CCCCC/C=C/C=C1/C(=O)C=CC1C/C=C\CCCC(=O)OC(CO)CO` (stereo not shown) [15d-PGJ2-G, 15-deoxy-Δ^12,14-prostaglandin J2-2-glycerol ester], the “hydrolysis by hBAT5 (substrate utilization, in words)” value ([1]; 25 µM substrate, 60 min) is reported as “readily hydrolyzed”, the Km ([1]; substrate of hBAT5, time-point 90 min, n=3) is reported as 20.9 µM and ~21 µM and the Vmax ([1]; substrate of hBAT5, total lysate protein, n=3) is reported as 3.0 ± 0.2 nmol/mg/min. For the same molecule, the Km [2] was roughly 15 µM.

In the case of `CCC(C)C(O)C(C)C(=O)C(C)C=C(C)CC(C)C1OC(=O)C1C` (stereo not shown) [Ebelactone A, ebelactone A], the IC50 [3] is reported as 870 nM, the remaining activity at 10 µM [4] is reported as 90.8% and the “sensitivity of hMAGL (in words)” value [4] is reported as “resistant”. For the same molecule, the remaining activity at 10 µM [5] was 87.3%, the “sensitivity of hFAAH (in words)” value [5] was “resistant” and the remaining activity at 10 µM [6] was 100%. For the same molecule, the “sensitivity of hABHD12 (in words)” value [6] was “resistant”.

In the case of `CCCCCCCCCCC[C@@H](C[C@@H]1OC(=O)[C@H]1CCCCCC)OC(=O)[C@H](CC(C)C)NC=O` [THL, tetrahydrolipstatin], the IC50 [7] is listed as 193 nM, the “inhibition of probe labeling of ABHD6 by reference inhibitor” value [8] is listed as “inhibited” and the IC50 [9] is listed as 170 nM. For the same molecule, the “inhibition of probe labeling of BAT5 by reference inhibitor” value [10] was “inhibited”, the remaining activity at 10 µM ([4]; at 10^−5 M, read-out: Remaining activity) was 88.1% and the remaining activity at 10 µM [5] was 100%.

B1: hBAT5 (Homo sapiens) (protein)
chain: MAKLLSCVLGPRLYKIYRERDSERAPASVPETPTAVTAPHSSSWDTYYQPRALEKHADSILALASVFWSISYYSSPFAFFYLYRKGYLSLSKVVPFSHYAGTLLLLLAGVACLRGIGRWTNPQYRQFITILEATHRNQSSENKRQLANYNFDFRSWPVDFHWEEPSSRKESRGGPSRRGVALLRPEPLHRGTADTLLNRVKKLPCQITSYLVAHTLGRRMLYPGSVYLLQKALMPVLLQGQARLVEECNGRRAKLLACDGNEIDTMFVDRRGTAEPQGQKLVICCEGNAGFYEVGCVSTPLEAGYSVLGWNHPGFAGSTGVPFPQNEANAMDVVVQFAIHRLGFQPQDIIIYAWSIGGFTATWAAMSYPDVSAMILDASFDDLVPLALKVMPDSWRGLVTRTVRQHLNLNNAEQLCRYQGPVLLIRRTKDEIITTTVPEDIMSNRGNDLLLKLLQHRYPRVMAEEGLRVVRQWLEASSQLEEASIYSRWEVEEDWCLSVLRSYQAEHGPDFPWSVGEDMSADGRRQLALFLARKHLHNFEATHCTPLPAQNFQMPWHL
With B1 the Km ([11]; with 0.5% BSA) was 137.8 ± 30.6 µM and 140 µM and the Km ([11]; without BSA) was 6.9 ± 1.7 µM.
